From patent US20060142591A1, “DAPH analogs and inhibition of protein aggregation” (priority 2004, published 2006)

Columns and labels:
Aβ42Total = Aβ42Total (Homo sapiens, UniProt P05067); assay: Reversal of aggregated Aβ42Total fibrils, ThT assay; type: biochemical; details: depends on the concentration of compound
Procedure: Aβ42Total is unfractionated synthetic Aβ42 that was dissolved in water at pH 8-9 by using NH3 or at pH 10-11 by using dilute NaOH and stored at −40° C. Experimental samples were prepared by diluting the stock solution of Aβ42 to 10 μM (unless noted otherwise) in Tyrode's solution 2 mM Ca (150 mM NaCl/3 mM KCl/10 mM Hepes, pH 7.4/2 mM CaCl2/10 mM D-glucose, pH 7.4/0.02% Na azide). The synthetic Aβ42 was dissolved in water at a pH of ˜8 and then stored at −20° C. until diluted into Tyrode's Solution/2 mM Ca (pH 7.4). This preparation is “Aβ42Total”. To aggregate for use in experiments, it was preincubated for 24 or 48 h at 37° C. without stirring. To measure β-sheet formation, ThT was added to protein or peptide reaction mixtures, such as Aβ samples or NM aggregation, NM disaggregation or NM seed reaction mixtures following incubation and fluorescent measurements were read according to standard procedures. […] ThT fluorescence is measured at room temperature (e.g., in a Fluoroskan II at […] or a FLUOstar Optima plate-reader (BMG Lab Technologies, Durham, N.C.) at Ex=440 nm and Em=480 nm). The ThT fluorescence spectrum is measured in an spectrofluorimeter (e.g., f4500, Hitachi, Tokyo) at Ex=435 nm and Em=450-550 nm. Fibrils of aggregated Aβ42Total give a strong ThT fluorescence signal, indicating high β-sheet content.

[1] = tested on: RML strain of mouse scrapie; type: in vivo, CD1 mice
Aβ fibrils = Aβ fibrils (Homo sapiens, UniProt P05067); assay: Reversal of preformed Aβ fibrils, observed by EM; type: biochemical; details: Aβ aggregated 24 h at pH 7.4, then another 24 h with equimolar compound; vehicle 1% DMSO
Procedure: Aβ42Total is unfractionated synthetic Aβ42 that was dissolved in water at pH 8-9 by using NH3 or at pH 10-11 by using dilute NaOH and stored at −40° C. Experimental samples were prepared by diluting the stock solution of Aβ42 to 10 μM (unless noted otherwise) in Tyrode's solution 2 mM Ca (150 mM NaCl/3 mM KCl/10 mM Hepes, pH 7.4/2 mM CaCl2/10 mM D-glucose, pH 7.4/0.02% Na azide). The synthetic Aβ42 was dissolved in water at a pH of ˜8 and then stored at −20° C. until diluted into Tyrode's Solution/2 mM Ca (pH 7.4). This preparation is “Aβ42Total”. To aggregate for use in experiments, it was preincubated for 24 or 48 h at 37° C. without stirring. Negative-staining EM was used to visualize the kinetics and morphology of Aβ42 fibrillization over time, with and without the presence of DAPH analogs. Samples of 10 μM seedless Aβ42 (Aβ4230k) were incubated for a predetermined amount of time at 37° C. and vigorously vortex mixed immediately before and after incubation. Very small volumes, typically 5 μl, of each sample were absorbed for 2-4 min onto glow-discharged, carbon-coated, Formvar-filmed 400 mesh copper grids and gently wicked away with filter paper. […] Measurements were analyzed, and width-distribution histograms were produced by using EXCEL 98 (Microsoft). […]

Aβ4230k = Aβ4230k (Homo sapiens, UniProt P05067); assay: Coincubation with seedless Aβ42 (fibrillization), observed by EM; type: biochemical
Sup35 NM protein [2] = target: T1, Sup35 NM protein (Saccharomyces cerevisiae, UniProt P05453); assay: NM aggregation assay; type: biochemical, yeast; details: soluble NM 5 μM
T1 construct: Soluble Sup35 NM protein (“NM”) was tested for aggregation
T1 sequence (P05453 1-253 limits assumed): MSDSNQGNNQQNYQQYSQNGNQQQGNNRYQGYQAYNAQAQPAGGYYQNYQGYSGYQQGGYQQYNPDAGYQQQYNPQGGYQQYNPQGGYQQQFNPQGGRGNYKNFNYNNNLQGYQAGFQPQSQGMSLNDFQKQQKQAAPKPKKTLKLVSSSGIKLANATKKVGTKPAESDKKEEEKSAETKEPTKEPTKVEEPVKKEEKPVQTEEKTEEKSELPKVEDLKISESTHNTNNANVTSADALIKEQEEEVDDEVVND
Procedure: Soluble Sup35 NM protein (“NM”) was tested for aggregation in the presence of DAPH, DAPH analogs or vehicle control (DMSO). NM protein (5 μM) was aggregated in the presence of DAPH (0-20 μM), DAPH analogs (0-20 μM) or DMSO (0-2% v/v). The assay mixture was incubated for 24 hr at 25° C., then tested for Congo Red binding to determine the extent of NM fiber formation.
(§1) Congo red was added to NM aggregation, NM disaggregation or NM seed reaction mixtures following incubation to a final concentration of 10 μM. After 30 min at 25° C., absorbances at 320, 477, and 540 nm were determined. Congo red dye binding was measured by using the equation [(OD540/25,295)−(OD477/46,306)] (Klunk et al., J. Histochem. Cytochem. 37:1273-1279, 1989) as described by Schirmer and Lindquist (Proc. Natl. Acad. Sci USA 94:13932-13937, 1997).
Soluble Sup35 NM (“NM”) at 5 μM was tested for aggregation in the presence of DAPH, DAPH analogs or vehicle control (DMSO). Aggregation of NM was inhibited by up to 100% (see FIG. 1). Inhibition of NM aggregation was concentration dependent.

NM protein fibers = target: T2, NM protein fibers (Saccharomyces cerevisiae, UniProt P05453); assay: NM disaggregation assay; type: biochemical, yeast
T2 construct: Soluble Sup35 NM protein (“NM”) was tested for aggregation
T2 sequence (P05453 1-253 limits assumed): T1 sequence (P05453 1-253 limits assumed)
Procedure: For determining disaggregation of preformed aggregates, NM protein fibers (equivalent to 5 μM monomer) were incubated with DAPH (0-20 μM), DAPH analogs (0-20 μM) or DMSO (0-2% v/v). The assay mixture was incubated for 24 hr at 25° C., then tested for Congo Red or Thioflavin T binding to determine the extent of NM fibers remaining.
as §1
To measure β-sheet formation, ThT was added to protein or peptide reaction mixtures, such as Aβ samples or NM aggregation, NM disaggregation or NM seed reaction mixtures following incubation and fluorescent measurements were read according to standard procedures.
For measurement, each sample preferably is split into multiple wells of a 96-well black-bottom plate (e.g., catalog no. 35-3943, VWR International, Westchester, Pa.). ThT fluorescence is measured at room temperature (e.g., in a Fluoroskan II at […] or a FLUOstar Optima plate-reader (BMG Lab Technologies, Durham, N.C.) at Ex=440 nm and Em=480 nm). The ThT fluorescence spectrum is measured in an spectrofluorimeter (e.g., f4500, Hitachi, Tokyo) at Ex=435 nm and Em=450-550 nm.

Sup35 NM protein [3] = target: T1, Sup35 NM protein; assay: NM seed assay; type: biochemical, yeast; details: disaggregated monomers used as seed at 2% or 5%
Procedure: Monomers of NM disaggregated by treatment with DAPH and DAPH analogs (see below) were tested for the ability to “seed” new NM fibers. Disaggregated monomers were used at 2% or 5% as described above for the NM aggregation assay.
as §1

amyloid β (Aβ) fibers = amyloid β (Aβ) fibers (Homo sapiens, UniProt P05067); details: Blanchard et al., PNAS 101:14326-14332, 2004; cited from earlier work
[4] = 1% brain homogenate incubated 48 hours with compound, lower doses of infectivity, log rank test

Chain of Aβ42Total (P05067 672-713 limits assumed): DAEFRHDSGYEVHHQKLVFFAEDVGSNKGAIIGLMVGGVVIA
Chain of Aβ4230k (P05067 672-713 limits assumed): as above
Chain of Aβ fibrils (P05067 672-713 limits assumed): as above
Chain of amyloid β (Aβ) fibers (P05067 672-713 limits assumed): as above

Row | SMILES | time for reversal of the fibrils, as detected by the ThT assay (Aβ42Total) | median survival longer than DMSO controls ([1]; 1% brain homogenate incubated 48 hours with compound, lower doses of infectivity, CD1 mice n=4 per group, log rank test) | effect on survival / prion titers (in words) [1, 4] | reversal of aggregation of Aβ fibrils as determined by EM (Aβ fibrils) | elimination of higher-order structure, EM studies (Aβ4230k; 24 h incubation) | elimination of the usual fibrils, as observed by EM (Aβ4230k; coincubation of Aβ4230k with equimolar compound (10:10 μM), 1% DMSO) | effect on NM fiber assembly / NM aggregation (in words) (Sup35 NM protein [2]) | inhibition of NM aggregation (Sup35 NM protein [2]; compound 0-20 μM, 24 hr at 25° C., Congo Red binding, FIG. 1, concentration dependent) | disaggregation of preformed NM fibers as compared to the DMSO control (NM protein fibers; preformed NM aggregates, FIGS. 2 and 3) | dissolution of NM fibers as measured by Congo Red binding (NM protein fibers; preformed NM fibers, FIG. 2) | dissolution of NM fibers as measured by ThT fluorescence (NM protein fibers; preformed NM fibers, FIG. 3) | ability of NM protein to reform NM fibers following disaggregation (Sup35 NM protein [3]) | effect of treatment at high doses of infectivity ([1]; high doses of infectivity) | disaggregation of amyloid β (Aβ) fibers (amyloid β (Aβ) fibers)
1 | COc1ccc(Nc2cc3c(cc2Nc2ccc(OC)cc2)C(=O)NC3=O)cc1 [DAPH-12, 5,6-Bis-(4-methoxy-phenylamino)-isoindole-1,3-dione] | takes only very few minutes | at least 60 days | reduction in prion titers | – | – | – | – | – | – | – | – | – | – | –
2 | O=C1NC(=O)c2cc(Nc3ccccc3)c(Nc3ccccc3)cc21 [DAPH, 4,5-dianilinophthalimide] | takes only very few minutes | – | did not significantly alter survival | reversed the aggregation of the Aβ fibrils | nearly complete elimination of higher-order structure | almost complete elimination of the usual fibrils | antagonizes NM fiber assembly | up to 100% | effective in disaggregation of preformed fibers | partially dissolve NM fibers | partially dissolve NM fibers | essentially unable to reform NM fibers | not observed | can disaggregate amyloid β (Aβ) fibers
